Test results from patent publication US20130101580A1, “COMPOSITIONS AND METHODS FOR PROLONGING LIFESPAN” (priority 2011, published 2013).
Marks after values point to notes of the source that are not given here.

How the values were obtained:
[1] = tested on: Drosophila melanogaster (Oregon); assay: Life span of wild type Oregon-R flies with aMT or 5MT added to the nutrition medium; type: in vivo; conditions: for Life span (days), Maximum / Life span (days), Mean / Life span (days), Median: aMT (18.3 mM) and 5MT (18.3 mM) in medium; for Increase of maximum life span / Increase of mean survival time: vs control
Procedure: Wild type Oregon-R flies were maintained at 23° C. on a standard Drosophila medium consisting of sugar, yeast, agar and semolina. Two concentrations of aMT (alpha-dl-methyl tryptophan) (0.46 mM or 18.3 mM) or 5MT (5-methyl-dl-tryptophan) (2.4 mM and 18.mM) (Sigma Aldrich Chemical Co, USA) were added to nutrition medium of experimental groups. To examine lifespan, 1-day old adult flies were collected and then regularly transferred to fresh medium every 3-4 days. The number of dead flies was recorded at the time of transfer.
The data were analyzed using two ways ANOVA and Log rank test.

[2] = tested on: Drosophila melanogaster (Oregon); assay: as above; type: in vivo

## Cc1ccc2[nH]cc(CC(N)C(=O)O)c2c1 (racemic) [5MT, 5-methyl-dl-tryptophan]
[1]; FEMALE flies
  Life span (days), Maximum: 65* days
  Life span (days), Mean: 48.5* days
  Life span (days), Median: 50 days
[1]; MALE flies
  Life span (days), Maximum: 40 days
  Life span (days), Mean: 26.7 days
  Life span (days), Median: 30 days
[1]; female flies, 5MT 34.5 mM, p<0.0001, two way ANOVA
  Increase of maximum life span: 23%
[1]; female flies, high concentrations of 5MT (34.5 mM), 11 out of 58
  Female flies surviving longer than 53 days (maximum life span of female control group): 19%
[2]; 5MT 2.3 mM in medium
  Effect on life span of Drosophila: did not affect
[2]; female flies, 5MT 34.5 mM, vs control, p<0.0001, two way ANOVA
  Increase of mean survival time: 21%
[2]; female flies, high concentrations of 5MT (34.5 mM)
  Longest survival of treated female flies: up to 65 days

## C[C@](N)(Cc1c[nH]c2ccccc12)C(=O)O (racemic) [aMT, alpha-dl-methyl tryptophan]
[1]; FEMALE flies
  Life span (days), Mean: 51.7* days
  Life span (days), Median: 50 days
[1]; MALE flies
  Life span (days), Mean: 40.2* days
  Life span (days), Median: 43* days
[1]; aMT 0.46 mM in medium
  Effect on life span of Drosophila: did not affect
[1]; female flies, aMT 18.3 mM, p<0.0001
  Increase of maximum life span: 23%
[1]; female flies, high concentration of aMT (18.3 mM), 13 out of 51
  Female flies surviving longer than 53 days (maximum life span of female control group): 25%
[1]; females, aMT 18.3 mM, p<0.0001, two way ANOVA
  Increase of mean survival time: 27%
[1]; male flies, aMT 18.3 mM, p<0.0001
  Increase of maximum life span: 21%
[1]; male flies, high concentration (18.3 mM)
  Effect on life span of male flies: did not affect
[1]; male flies, high concentration of aMT (18.3 mM), 29 out of 40
  Male flies surviving longer than 40 days (maximum life span of 72 out of 73 control flies): 60%
[1]; males, aMT 18.3 mM, p<0.0001, two way ANOVA
  Increase of mean survival time: 42%
